# Measurements taken from patent US9624155B2, “Iron (III) citrate, substantially free of beta-iron hydroxide oxide” (Japan Tobacco Inc., priority 2011, dated 2017).
# Test: Specific surface area by nitrogen gas adsorption (BET)
# Type: physicochemical
# Conditions: relative pressure 0.05 to 0.3 (BET surface area)
# Description: A specific surface area can be measured by, for example, but is not limited to, BET surface area measurement via nitrogen gas adsorption (relative pressure: 0.05 to 0.3).
# Specific surface areas of iron(III) citrates of Comparative Examples 11 and 12 and Examples 1, 4, 5, 6, 7, and 10 to 23 were measured by nitrogen gas adsorption (relative pressure: 0.05 to 0.3) (BET surface area).
row,SMILES,Specific surface area
1,"O=C([O-])CC(O)(CC(=O)[O-])C(=O)[O-].[Fe+3] [Comparative Example 11, iron(III) citrate]",0.80 m^2/g
2,"O=C([O-])CC(O)(CC(=O)[O-])C(=O)[O-].[Fe+3] [Comparative Example 12, iron(III) citrate]",0.62 m^2/g
3,"O=C([O-])CC(O)(CC(=O)[O-])C(=O)[O-].[Fe+3] [Example 1, iron(III) citrate]",21.8 m^2/g
4,"O=C([O-])CC(O)(CC(=O)[O-])C(=O)[O-].[Fe+3] [Example 4, iron(III) citrate]",33.4 m^2/g
5,"O=C([O-])CC(O)(CC(=O)[O-])C(=O)[O-].[Fe+3] [Example 5, Iron(III) citrate]",31.0 m^2/g
6,"O=C([O-])CC(O)(CC(=O)[O-])C(=O)[O-].[Fe+3] [Example 6, Iron(III) citrate]",30.4 m^2/g
7,"O=C([O-])CC(O)(CC(=O)[O-])C(=O)[O-].[Fe+3] [Example 7, Iron(III) citrate]",29.8 m^2/g
8,"O=C([O-])CC(O)(CC(=O)[O-])C(=O)[O-].[Fe+3] [Example 10, Iron(III) citrate]",29.9 m^2/g
9,"O=C([O-])CC(O)(CC(=O)[O-])C(=O)[O-].[Fe+3] [Example 11, Iron(III) citrate]",30.0 m^2/g
10,"O=C([O-])CC(O)(CC(=O)[O-])C(=O)[O-].[Fe+3] [Example 12, Iron(III) citrate]",30.3 m^2/g
11,"O=C([O-])CC(O)(CC(=O)[O-])C(=O)[O-].[Fe+3] [Example 13, Iron(III) citrate]",29.1 m^2/g
12,"O=C([O-])CC(O)(CC(=O)[O-])C(=O)[O-].[Fe+3] [Example 14, Iron(III) citrate]",37.9 m^2/g
13,"O=C([O-])CC(O)(CC(=O)[O-])C(=O)[O-].[Fe+3] [Example 15, Iron(III) citrate]",38.5 m^2/g
14,"O=C([O-])CC(O)(CC(=O)[O-])C(=O)[O-].[Fe+3] [Example 16, Iron(III) citrate]",33.7 m^2/g
15,"O=C([O-])CC(O)(CC(=O)[O-])C(=O)[O-].[Fe+3] [Example 17, Iron(III) citrate]",32.4 m^2/g
16,"O=C([O-])CC(O)(CC(=O)[O-])C(=O)[O-].[Fe+3] [Example 18, Iron(III) citrate]",39.9 m^2/g
17,"O=C([O-])CC(O)(CC(=O)[O-])C(=O)[O-].[Fe+3] [Example 19, Iron(III) citrate]",39.8 m^2/g
18,"O=C([O-])CC(O)(CC(=O)[O-])C(=O)[O-].[Fe+3] [Example 20, Iron(III) citrate]",33.8 m^2/g
19,"O=C([O-])CC(O)(CC(=O)[O-])C(=O)[O-].[Fe+3] [Example 21, Iron(III) citrate]",35.5 m^2/g
20,"O=C([O-])CC(O)(CC(=O)[O-])C(=O)[O-].[Fe+3] [Example 22, Iron(III) citrate]",32.6 m^2/g
21,"O=C([O-])CC(O)(CC(=O)[O-])C(=O)[O-].[Fe+3] [Example 23, Iron(III) citrate]",32.8 m^2/g
